From paper PMC11083148, “Structure–Activity Relationship Studies on Highly Functionalized Pyrazole Hydrazones and Amides as Antiproliferative and Antioxidant Agents” (International Journal of Molecular Sciences, 2024)

Experiments:
Type in all cases: cell-based
A549 = experiment: MTT assay, antiproliferative activity; conditions: Homo sapiens, 48h, read-out: Mean Growth Percentage
Summary of the method: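 Cells plated 16 h, then exposed to compounds at 10 μM final for 48 h at 37 °C, 5% CO2. MTT added for 4 h, formazan dissolved in DMSO, absorbance read at 570 nm; values as percent of DMSO-only control, mean of three experiments in six replicates.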

A549/ATCC = experiment: NCI screening, Non-Small Cell Lung Cancer; conditions: 10 µM
Experimental: (§1) In addition, 11a and 17 (representative compounds of the acylhydrazone and amide series) were selected by the National Cancer Institute (NCI, Germantown, MD, USA) and tested at a fixed concentration of 10 µM against a panel of fifty-nine different cancer cell lines, including highly metastatic tumors (Table 2).

EKVX = experiment: NCI screening, Non-Small Cell Lung Cancer; conditions: 10 µM
Experimental: as §1

HOP-62 = experiment: NCI screening, Non-Small Cell Lung Cancer; conditions: HOP-62, Non-Small Cell Lung Cancer; 10 µM
Experimental: as §1

HOP-92 = experiment: NCI screening, Non-Small Cell Lung Cancer; conditions: HOP-92, Non-Small Cell Lung Cancer; 10 µM
Experimental: as §1

NCI-H226 = experiment: NCI screening, Non-Small Cell Lung Cancer; conditions: 10 µM
Experimental: as §1

NCI-H23 = experiment: NCI screening, Non-Small Cell Lung Cancer; conditions: 10 µM
Experimental: as §1

NCI-H322M = experiment: NCI screening, Non-Small Cell Lung Cancer; conditions: 10 µM
Experimental: as §1

SF-268 = experiment: NCI screening, CNS Cancer; conditions: SF-268, CNS Cancer; 10 µM
Experimental: as §1

SF-295 = experiment: NCI screening, CNS Cancer; conditions: SF-295, CNS Cancer; 10 µM
Experimental: as §1

SF-539 = experiment: NCI screening, CNS Cancer; conditions: SF-539, CNS Cancer; 10 µM
Experimental: as §1

SNB-19 = experiment: NCI screening, CNS Cancer; conditions: SNB-19, CNS Cancer; 10 µM
Experimental: as §1

SNB-75 = experiment: NCI screening, CNS Cancer; conditions: SNB-75, CNS Cancer; 10 µM
Experimental: as §1

U251 = experiment: NCI screening, CNS Cancer; conditions: 10 µM
Experimental: as §1

IGROV1 = experiment: NCI screening, Ovarian Cancer; conditions: 10 µM
Experimental: as §1

NCI/ADR-RES = experiment: NCI screening, Ovarian Cancer; conditions: 10 µM
Experimental: as §1

OVCAR-4 = experiment: NCI screening, Ovarian Cancer; conditions: OVCAR-4, Ovarian Cancer; 10 µM
Experimental: as §1

OVCAR-5 = experiment: NCI screening, Ovarian Cancer; conditions: OVCAR-5, Ovarian Cancer; 10 µM
Experimental: as §1

OVCAR-8 = experiment: NCI screening, Ovarian Cancer; conditions: OVCAR-8, Ovarian Cancer; 10 µM
Experimental: as §1

SK-OV-3 = experiment: NCI screening, Ovarian Cancer; conditions: SK-OV-3, Ovarian Cancer; 10 µM
Experimental: as §1

786-0 = experiment: NCI screening, Renal Cancer; conditions: 786-0, Renal Cancer; 10 µM
Experimental: as §1

A498 = experiment: NCI screening, Renal Cancer; conditions: 10 µM
Experimental: as §1

ACHN = experiment: NCI screening, Renal Cancer; conditions: 10 µM
Experimental: as §1

CAKI-1 = experiment: NCI screening, Renal Cancer; conditions: CAKI-1, Renal Cancer; 10 µM
Experimental: as §1

RXF 393 = experiment: NCI screening, Renal Cancer; conditions: RXF 393, Renal Cancer; 10 µM
Experimental: as §1

SN12C = experiment: NCI screening, Renal Cancer; conditions: 10 µM
Experimental: as §1

TK-10 = experiment: NCI screening, Renal Cancer; conditions: TK-10, Renal Cancer; 10 µM
Experimental: as §1

UO-31 = experiment: NCI screening, Renal Cancer; conditions: UO-31, Renal Cancer; 10 µM
Experimental: as §1

With COc1ccc(/C=N/NC(=O)c2c(N)nn(C)c2Nc2ccccc2)cc1 [11a, (E)-3-amino-N′-(4-methoxybenzylidene)-1-methyl-5-(phenylamino)-1H-pyrazole-4-carbohydrazide] the activity at 10 µM (A549) was 60.8%, the “Growth Percentage (%)” value (A549/ATCC) was 57.09% and the “Growth Percentage (%)” value (EKVX) was 69.71%. For the same compound, the “Growth Percentage (%)” value (HOP-62) was 38.79%, the “Growth Percentage (%)” value (HOP-92) was 46.79% and the “Growth Percentage (%)” value (NCI-H226) was 51.61%. For the same compound, the “Growth Percentage (%)” value (NCI-H23) was 66.86%, the “Growth Percentage (%)” value (NCI-H322M) was 89.96% and the “Growth Percentage (%)” value (SF-268) was 58.65%. For the same compound, the “Growth Percentage (%)” value (SF-295) was 98.52%, the “Growth Percentage (%)” value (SF-539) was 40.20% and the “Growth Percentage (%)” value (SNB-19) was 36.78%. The “Growth Percentage (%)” value (SNB-75) was 35.14%, the “Growth Percentage (%)” value (U251) was 33.33% and the “Growth Percentage (%)” value (IGROV1) was 39.64%. For the same compound, the “Growth Percentage (%)” value (NCI/ADR-RES) was 32.98%, the “Growth Percentage (%)” value (OVCAR-4) was 87.03% and the “Growth Percentage (%)” value (OVCAR-5) was 76.88%. The “Growth Percentage (%)” value (OVCAR-8) was 70.80%, the “Growth Percentage (%)” value (SK-OV-3) was 49.64% and the “Growth Percentage (%)” value (786-0) was 57.97%. For the same compound, the “Growth Percentage (%)” value (A498) was 33.08%, the “Growth Percentage (%)” value (ACHN) was 49.99% and the “Growth Percentage (%)” value (CAKI-1) was 39.84%. The “Growth Percentage (%)” value (RXF 393) was 37.26%, the “Growth Percentage (%)” value (SN12C) was 57.59% and the “Growth Percentage (%)” value (TK-10) was 89.16%. For the same compound, the “Growth Percentage (%)” value (UO-31) was 51.18%.
With CCOC(=O)c1c(NC(=O)C2CC2)nn(C)c1Nc1ccccc1 [compound 17, Ethyl 3-(cyclopropanecarboxamido)-1-methyl-5-(phenylamino)-1H-pyrazole-4-carboxylate] the activity at 10 µM (A549) was 75.8%, the “Growth Percentage (%)” value (A549/ATCC) was 101.59% and the “Growth Percentage (%)” value (EKVX) was 96.82%. For the same compound, the “Growth Percentage (%)” value (HOP-62) was 110.36%, the “Growth Percentage (%)” value (HOP-92) was 81.47% and the “Growth Percentage (%)” value (NCI-H226) was 98.86%. The “Growth Percentage (%)” value (NCI-H23) was 98.44%, the “Growth Percentage (%)” value (NCI-H322M) was 94.41% and the “Growth Percentage (%)” value (SF-268) was 101.17%. For the same compound, the “Growth Percentage (%)” value (SF-295) was 102.51%, the “Growth Percentage (%)” value (SF-539) was 97.42% and the “Growth Percentage (%)” value (SNB-19) was 98.39%. For the same compound, the “Growth Percentage (%)” value (SNB-75) was 94.70%, the “Growth Percentage (%)” value (U251) was 100.80% and the “Growth Percentage (%)” value (IGROV1) was 100.75%. For the same compound, the “Growth Percentage (%)” value (NCI/ADR-RES) was 103.29%, the “Growth Percentage (%)” value (OVCAR-4) was 99.35% and the “Growth Percentage (%)” value (OVCAR-5) was 99.49%. The “Growth Percentage (%)” value (OVCAR-8) was 101.92%, the “Growth Percentage (%)” value (SK-OV-3) was 99.73% and the “Growth Percentage (%)” value (786-0) was 101.26%. The “Growth Percentage (%)” value (A498) was 92.87%, the “Growth Percentage (%)” value (ACHN) was 104.77% and the “Growth Percentage (%)” value (CAKI-1) was 86.39%. The “Growth Percentage (%)” value (RXF 393) was 101.07%, the “Growth Percentage (%)” value (SN12C) was 104.27% and the “Growth Percentage (%)” value (TK-10) was 107.78%. The “Growth Percentage (%)” value (UO-31) was 87.45%.
